Data set [1] relates to sarcoma 180 cells. Nature of the data set: Antitumor activity on sarcoma 180 (tumor weight, i.v.). The note with it: 10 consecutive days, day 17. Type of data set: in vivo, male ICR mice. The method, then:
(2) antitumor activity on sarcoma 180
Ten male ICR mice in each group, weighing 30-35 g, were subcutaneously inoculated with 5×10^5 sarcoma 180 cells. A solution of the compound in physiological saline was injected intravenously at the dose shown in Table 5 below once a day for 10 consecutive days starting with the next day of the tumor inoculation. Seventeen days after the tumor inoculation, mice were sacrificed, and tumors were weighed.

The nature of data set [2]: Acute toxicity test (up-down method, i.v.). As to conditions: mouse, in vivo, iv, male ddy mice. The protocol: Male ddy mice weighing 20 g were used. A solution of the compound in physiological saline was injected intravenously. The dose lethal to 50% of mice was determined by the up-down method.
Data set [3] relates to spleen hemolytic plaque forming cells. Nature of the data set: Effect on humoral response (hemolytic plaque forming cells, sheep red blood cells, i.p.). The format is in vivo, male BALB/C mice. The note with it: for Increase (hemolytic plaque forming cells vs saline control) / Cell count/spleen (hemolytic plaque forming cells): day 0 to 4; for Cell count/spleen (hemolytic plaque forming cells): counted day 5. The protocol:
(4) Effect on humoral response
Ten male BALB/C mice in each group, weighing 25-30 g, were intravenously injected with 1×10^7 sheep red blood cells on day 0. A solution of the compound in physiological saline was injected intraperitoneally at the dose shown in Table 7 below from day 0 to day 4.
On day 5, spleen hemolytic plaque forming cells were counted by the technique of Jerne et al (Science, 140, 405, 1963) modified by Cunningham et al (Immunology, 14, 599, 1968).

Data set [4] deals with transplantable fibrosarcoma induced by 3-methylcholanthrene. Nature of the data set: Antitumor activity on a 3-methylcholanthrene-induced transplantable tumor (tumor weight, i.v.). Type of data set: in vivo, male C57BL/6 mice. As to conditions: every other day 5 times, day 21. The method, then:
(3) Antitumor activity on a 3-methylcholanthrene-induced transplantable tumor.
Ten male C57BL/6 mice in each group weighing 20-25 g were subcutaneously inoculated with 5×10^4 or 1×10^5 cells of transplantable fibrosarcoma, which was induced in C57BL/6 strain by 3-methylcholanthrene and maintained syngenetically in ascites form. A solution of the compound in physiological saline was injected intravenously at the dose shown in Table 6 below every other day 5 times, starting with the next day of the tumor inoculation. Twenty-one days after the tumor inoculation, mice were sacrificed and tumors were weighed.

Data set [5] relates to delayed hypersensitivity response. Nature of the data set: Effect on a cell-mediated response (picryl chloride delayed hypersensitivity, ear swelling, oral). The format is in vivo, male BALB/C mice. The note with it: for Increase relative to control group (ear swelling) / Increase of swelling (× 10^-4): 7 days; for Increase of swelling (× 10^-4): 24 hours after challenge; for effect on the delayed hypersensitivity response (in words): oral, Table 8 doses. The protocol:
(5) Effect on a cell-mediated response
Ten male BALB/C mice in each group, weighing in 20-25 g, were used. Mice were immunized by applying the skin of the clipped abdomen with 0.1 ml of 7% picryl chloride in absolute alcohol on day 0, and challenge was with 0.02 ml of 1% picryl chloride in olive oil applied to the ear on day 7. The ear was measured again 24 hours later by a dial thickness gauge. A solution of the compound in water was orally administered at the dose shown in Table 8 below daily for seven consecutive days starting with day 1.

Data set [6] deals with Meth-A cells. Nature of the data set: Antitumor activity on a syngenic Meth-A tumor (tumor weight, i.v.). The format is in vivo, male BALB/C mice. As to conditions: 7 consecutive days, day 17. The protocol:
(1) Antitumor activity on a syngenic Meth-A tumor.
Ten male BALB/C mice in each group, weighing 25-30 g, were subcutaneously inoculated with 2×10^4 Meth-A cells. A solution of the compound in physiological saline was injected intravenously at the dose shown in Table 4 below once a day for consecutive 7 days starting with the next day of the tumor inoculation. Seventeen days after the tumor inoculation, mice were sacrificed, and tumors were weighed.
Growth inhibition was assessed, tumor weight in the treated mice divided by tumor weight in the control mice.

Setting [7] is: 3 mg/kg/day i.v., cell count 1 × 10^5.

For the compound `C[S+](CCOC(=O)c1ccccc1)CC1CCCO1` (centres unmarked) [Compound 27], the “Inhibition (sarcoma 180 growth)” value in data set [1] (0.4 mg/kg/day i.v.) worked out at 75.7%. In data set [2], the LD50 (as a rule, the dose expected to kill half of the subjects tested) was found to be 94 mg/kg.

As for `C[S+](C)CC1CCCO1` (centres unmarked) [Compound 1, methylene(tetrahydro-2-furanyl)dimethylsulfonium p-toluenesulfonate], the entries for the “Increase (hemolytic plaque forming cells vs saline control)” value in data set [3] (2.5 mg/kg/day i.p.), in data set [3] (10 mg/kg/day i.p.) and in data set [3] (40 mg/kg/day i.p.) were 52.6%, 35.1% and 85.8%, respectively. Further, the “Cell count/spleen (hemolytic plaque forming cells)” value in data set [3] (2.5 mg/kg/day i.p.) is on record as 322 ± 75.2; in data set [3] (10 mg/kg/day i.p.), 285 ± 113.5; in data set [3] (40 mg/kg/day i.p.), 392 ± 91.4. The “increase in the number of hemolytic plaque forming cells (in words)” value in data set [3] (at the doses of 2.5 mg/kg and 40 mg/kg, i.p.) is “significant increases”. Moreover, in data set [1] (0.8 mg/kg/day i.v.), the “Inhibition (sarcoma 180 growth)” value is 66.4%. Moreover, the “Inhibition (fibrosarcoma growth)” value in data set [4] (10 mg/kg/day i.v., cell count 5 × 10^4) was 71.5%. The median lethal dose (LD50) in data set [2] came out at 130 mg/kg. Further, the entries for the “Increase relative to control group (ear swelling)” value in data set [5] (20 mg/kg/day oral), in data set [5] (100 mg/kg/day oral) and in data set [5] (500 mg/kg/day oral) were -3.4%, 43.5% and 11.0%, respectively. Also, the “Increase of swelling (× 10^-4)” value was 34.2 ± 6.0 × 10^-4 in data set [5] (20 mg/kg/day oral), 50.8 ± 13.4 × 10^-4 in data set [5] (100 mg/kg/day oral) and 39.3 ± 9.8 × 10^-4 in data set [5] (500 mg/kg/day oral). Also, the “effect on the delayed hypersensitivity response (in words)” value in data set [5] was “augment the delayed hypersensitivity response”. In addition, the “Inhibition (Meth-A tumor growth)” value in data set [6] (0.8 mg/kg/day i.v.) turned out to be 39.9%; in data set [6] (4.0 mg/kg/day i.v.), 63.9%.

With `C[S+](C)CCC1CCCO1` (centres unmarked) [Compound 29, ethylene(tetrahydro-2-furanyl)dimethylsulfonium p-toluenesulfonate], in data set [4] (setting [7]), the “Inhibition (fibrosarcoma growth)” value was found to be 66.7%. This compound also had an LD50 in data set [2] of 131 mg/kg. Further, the “Increase relative to control group (ear swelling)” value in data set [5] (20 mg/kg/day oral) was 26.0%; in data set [5] (100 mg/kg/day oral), 35.3%; in data set [5] (500 mg/kg/day oral) it was -11.6%. Also, the “Increase of swelling (× 10^-4)” value is recorded as 44.8 ± 9.5 × 10^-4 in data set [5] (20 mg/kg/day oral), 47.9 ± 13.2 × 10^-4 in data set [5] (100 mg/kg/day oral) and 31.3 ± 13.5 × 10^-4 in data set [5] (500 mg/kg/day oral). The “effect on the delayed hypersensitivity response (in words)” value in data set [5] is listed as “augment the delayed hypersensitivity response”. The entries for the “Inhibition (Meth-A tumor growth)” value in data set [6] (0.4 mg/kg/day i.v.), in data set [6] (2.0 mg/kg/day i.v.) and in data set [6] (10.0 mg/kg/day i.v.) were 60.7%, 69.8% and 39.6%, respectively.

`C[S+](C)CCC1CCCCO1` (centres unmarked) [Compound 58] returned an LD50 in data set [2] of 80 mg/kg. For the same compound, the “Inhibition (Meth-A tumor growth)” value in data set [6] (2.0 mg/kg/day i.v.) is given as 49.2%.

In the case of `C[S+](C)CC1CCCCO1` (centres unmarked) [Compound 50, methylene(tetrahydro-2-pyranyl)dimethylsulfonium p-toluenesulfonate], the “Inhibition (sarcoma 180 growth)” value in data set [1] (3.0 mg/kg/day i.v.) came out at 73.3%. In data set [2], the LD50 turned out to be 135 mg/kg.

As for `C[S+](C)CCCC1CCCO1` (centres unmarked) [Compound 46], the LD50 in data set [2] is 13.2 mg/kg. In addition, the “Inhibition (Meth-A tumor growth)” value in data set [6] (0.2 mg/kg/day i.v.) was 58.1%.

For `CCCC[S+](C)CC1CCCO1` (centres unmarked) [Compound 12], the “Inhibition (fibrosarcoma growth)” value in data set [4] (setting [7]) is on record as 44.3%. In data set [2], the LD50 was found to be 90 mg/kg.

The record behind these values is patent US4340543A, “Sulfonium compounds” (Taiho Pharmaceutical Company Limited, priority 1980, dated 1982).
